According to paper PMC9250534, “Synthesis and direct assay of large macrocycle diversities by combinatorial late-stage modification at picomole scale” (Nature Communications, 2022):
“And” between values parts separate entries of the source, which are not always exact repeats. Equal values may be shown once. Read-outs that look alike come from different tables or passages of the source. Each block holds one compound with its values, some of them ahead of it.

Legend:
thrombin [1] = biological target: T1, thrombin (Homo sapiens, UniProt P00734); experiment: Determination of Kis of purified thrombin inhibitors (IC50, Cheng-Prusoff); format: biochemical; settings: for % thrombin activity: replicates 1-3; for IC50 / Ki: thrombin
T1 construct: consists of two polypeptide chains of 36 (light chain) and 259 amino acid
Method: Purified thrombin inhibitors (10 mM in DMSO) were diluted to 80 μM in 125 μL of Tris buffer (100 mM Tris-Cl, 150 mM NaCl, 10 mM MgCl2, 1 mM CaCl2) containing 0.1% w/v BSA, 0.01% v/v Triton-X100 and […]. The macrocycles were diluted two-fold in Tris buffer containing 0.1% w/v BSA, 0.01% v/v Triton-X100 and 1% DMSO in buffer. The thrombin activity was measured in 96-well plates (Greiner, 655101) and the residual activity calculated as described above in the assay used to measure activities of HPLC-separated fractions of screening hits.
Supplementary Figure 7. Thrombin inhibitors M1 to M5. a, Chemical structures and analytical HPLC chromatograms obtained using a 0-100% MeCN/H2O gradient over 15 minutes. b, For all macrocycles, an 18 -point, two-fold serial dilution was performed in 50 µL volumes. Thrombin was added (50 µL, 2 nM final conc.), followed 10 minutes later by fluorogenic substrate Z -Gly-Gly-Arg-AMC (50 µL, 50 µM final conc.). The increase in fluorescence was measured over 30 minutes.
Residual thrombin activity was determined by dividing the slope of fluorescenc e intensity over time for each well by the slope of control wells without macrocycle. Mean values and SDs are indicated for three independent thrombin inhibition measurements.
(1 picture or pasted object on this page, not shown here)

thrombin [2] = biological target: T1, thrombin; experiment: Thrombin inhibition screen of crude macrocycle reactions (residual thrombin activity, fluorogenic substrate Z-Gly-Gly-Arg-AMC); format: biochemical; settings: 10 µM macrocycle concentration, macrocycles containing acid 14, crude reaction
Outline: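 Residual activity was measured as the AMC release rate after adding 50 μM Z-Gly-Gly-Arg-AMC. This followed a 10-min room-temperature preincubation of 2 nM thrombin with 10 μM single macrocycles in pH 7.4 Tris buffer (0.6% DMSO). Percent inhibition was taken against the mean slope of DMSO controls.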

[3] = average of 3 replicates, read-out: IC50 (nM) Average
[4] = replicate 1, Cheng-Prusoff, read-out: Ki (nM) Replicate 1
[5] = replicate 1, read-out: IC50 (nM) Replicate 1
[6] = replicate 2, Cheng-Prusoff, read-out: Ki (nM) Replicate 2
[7] = replicate 2, read-out: IC50 (nM) Replicate 2
[8] = replicate 3, Cheng-Prusoff, read-out: Ki (nM) Replicate 3
[9] = replicate 3, read-out: IC50 (nM) Replicate 3

% thrombin activity (thrombin [1]; Log [Macrocycle] M -8.8): 98.0% and 96.9% and 96.6%
% thrombin activity (thrombin [1]; Log [Macrocycle] M -9.1): 99.2% and 98.3% and 98.9%
% thrombin activity (thrombin [1]; Log [Macrocycle] M -9.4): 99.9% and 99.1% and 103.5%
% thrombin activity (thrombin [1]; Log [Macrocycle] M -9.7): 100.7% and 100.1% and 99.6%
% thrombin activity (thrombin [1]; Log[Macrocycle] M -4.6): -0.0543% and 1.1% and -0.4%
% thrombin activity (thrombin [1]; Log[Macrocycle] M -4.9): 0.156% and 0.7% and 0.8%
% thrombin activity (thrombin [1]; Log[Macrocycle] M -5.2): 0.8% (2×) and 1.8%
% thrombin activity (thrombin [1]; Log[Macrocycle] M -5.5): 1.9% (2×) and 2.1%
% thrombin activity (thrombin [1]; Log[Macrocycle] M -5.8): 3.9% and 4.1% and 4.6%
% thrombin activity (thrombin [1]; Log[Macrocycle] M -6.1): 7.3% and 6.9% and 7.7%
% thrombin activity (thrombin [1]; Log[Macrocycle] M -6.4): 13.7% and 13.0% and 13.6%
% thrombin activity (thrombin [1]; Log[Macrocycle] M -6.7): 22.7% and 21.8% and 22.6%
% thrombin activity (thrombin [1]; Log[Macrocycle] M -7.0): 35.5% and 35.6% and 37.1%
% thrombin activity (thrombin [1]; Log[Macrocycle] M -7.3): 54.7% and 53.1% and 53.5%
% thrombin activity (thrombin [1]; Log[Macrocycle] M -7.6): 68.7% and 65.3% and 67.8%
% thrombin activity (thrombin [1]; Log[Macrocycle] M -7.9): 81.7% and 81.8% and 83.6%
% thrombin activity (thrombin [1]; Log[Macrocycle] M -8.2): 91.6% and 89.3% and 88.1%
% thrombin activity (thrombin [1]; Log[Macrocycle] M -8.5): 94.7% and 92.6% and 94.4%
IC50 (thrombin [1]; [3]): 58 nM
Ki (thrombin [1]; [4]): 45 nM
IC50 (thrombin [1]; [5]): 59 nM
Ki (thrombin [1]; [6]): 43 nM
IC50 (thrombin [1]; [7]): 56 nM
Ki (thrombin [1]; [8]): 45 nM
IC50 (thrombin [1]; [9]): 58 nM
SMILES: CC(C)[C@H]1NC(=O)CCSSCCNC(=O)[C@H](CNC(=O)c2ccc(Cl)s2)NC(=O)c2cccc(c2)CNC1=O [M1]

% thrombin activity (thrombin [1]; Log [Macrocycle] M -8.8): 99.5% and 97.4% and 98.4%
% thrombin activity (thrombin [1]; Log [Macrocycle] M -9.1): 100.1% (2×) and 99.4%
% thrombin activity (thrombin [1]; Log [Macrocycle] M -9.4): 100.7% and 100.1% and 99.7%
% thrombin activity (thrombin [1]; Log [Macrocycle] M -9.7): 100.6% and 99.6% and 99.8%
% thrombin activity (thrombin [1]; Log[Macrocycle] M -4.6): 3.5% and 3.8% and 4.4%
% thrombin activity (thrombin [1]; Log[Macrocycle] M -4.9): 4.9% (2×) and 5.4%
% thrombin activity (thrombin [1]; Log[Macrocycle] M -5.2): 6.7% and 6.5% and 7.1%
% thrombin activity (thrombin [1]; Log[Macrocycle] M -5.5): 9.9% and 8.4% and 9.6%
% thrombin activity (thrombin [1]; Log[Macrocycle] M -5.8): 16.3% and 13.3% and 13.6%
% thrombin activity (thrombin [1]; Log[Macrocycle] M -6.1): 26.3% and 21.4% and 21.2%
% thrombin activity (thrombin [1]; Log[Macrocycle] M -6.4): 42.5% and 32.8% and 34.8%
% thrombin activity (thrombin [1]; Log[Macrocycle] M -6.7): 58.0% and 47.2% and 49.8%
% thrombin activity (thrombin [1]; Log[Macrocycle] M -7.0): 71.8% and 64.0% and 65.5%
% thrombin activity (thrombin [1]; Log[Macrocycle] M -7.3): 83.6% and 77.5% and 79.8%
% thrombin activity (thrombin [1]; Log[Macrocycle] M -7.6): 92.7% and 85.4% and 86.8%
% thrombin activity (thrombin [1]; Log[Macrocycle] M -7.9): 95.0% and 92.0% and 93.5%
% thrombin activity (thrombin [1]; Log[Macrocycle] M -8.2): 99.2% and 94.0% and 94.1%
% thrombin activity (thrombin [1]; Log[Macrocycle] M -8.5): 98.9% and 96.9% and 97.6%
IC50 (thrombin [1]; [3]): 214 nM
Ki (thrombin [1]; [4]): 210 nM
IC50 (thrombin [1]; [5]): 270 nM
Ki (thrombin [1]; [6]): 138 nM
IC50 (thrombin [1]; [7]): 179 nM
Ki (thrombin [1]; [8]): 149 nM
IC50 (thrombin [1]; [9]): 193 nM
% thrombin activity, Original screen (thrombin [2]; original screen): 6.9%
% thrombin activity, Repeat screen (thrombin [2]; replicate reaction and screen): 6.5%
SMILES: O=C1CCSSCCNC(=O)C(CNC(=O)c2ccc(Cl)s2)NC(=O)c2cccc(c2)CNC(=O)C(Cc2ccccc2)N1 (stereo not drawn) [M2]

% thrombin activity (thrombin [1]; Log [Macrocycle] M -8.8): 98.3% and 97.3% and 97.1%
% thrombin activity (thrombin [1]; Log [Macrocycle] M -9.1): 98.8% and 98.0% and 98.2%
% thrombin activity (thrombin [1]; Log [Macrocycle] M -9.4): 99.9% and 97.2% and 99.1%
% thrombin activity (thrombin [1]; Log [Macrocycle] M -9.7): 93.6% and 99.4% (2×)
% thrombin activity (thrombin [1]; Log[Macrocycle] M -4.6): -0.0344% and 0.5% and 0.739%
% thrombin activity (thrombin [1]; Log[Macrocycle] M -4.9): 0.656% and 1.5% and 1.0%
% thrombin activity (thrombin [1]; Log[Macrocycle] M -5.2): 2.2% and 5.0% and 2.4%
% thrombin activity (thrombin [1]; Log[Macrocycle] M -5.5): 4.8% and 4.9% and 5.3%
% thrombin activity (thrombin [1]; Log[Macrocycle] M -5.8): 9.4% and 9.7% (2×)
% thrombin activity (thrombin [1]; Log[Macrocycle] M -6.1): 17.5% and 15.4% and 16.3%
% thrombin activity (thrombin [1]; Log[Macrocycle] M -6.4): 29.4% and 28.1% and 27.8%
% thrombin activity (thrombin [1]; Log[Macrocycle] M -6.7): 45.2% and 42.3% and 41.8%
% thrombin activity (thrombin [1]; Log[Macrocycle] M -7.0): 60.5% and 58.8% and 57.9%
% thrombin activity (thrombin [1]; Log[Macrocycle] M -7.3): 75.1% and 75.3% and 74.4%
% thrombin activity (thrombin [1]; Log[Macrocycle] M -7.6): 85.8% and 81.9% and 83.6%
% thrombin activity (thrombin [1]; Log[Macrocycle] M -7.9): 92.4% and 87.2% and 91.4%
% thrombin activity (thrombin [1]; Log[Macrocycle] M -8.2): 97.7% and 93.3% and 94.6%
% thrombin activity (thrombin [1]; Log[Macrocycle] M -8.5): 97.5% and 94.4% and 96.1%
IC50 (thrombin [1]; [3]): 160 nM
Ki (thrombin [1]; [4]): 134 nM
IC50 (thrombin [1]; [5]): 170 nM
Ki (thrombin [1]; [6]): 121 nM
IC50 (thrombin [1]; [7]): 160 nM
Ki (thrombin [1]; [8]): 119 nM
IC50 (thrombin [1]; [9]): 150 nM
SMILES: CC(C)[C@@H]1NC(=O)CCSSCCNC(=O)[C@H](CNC(=O)c2ccc(Cl)s2)NC(=O)c2cccc(c2)CNC1=O [M3]

% thrombin activity (thrombin [1]; Log [Macrocycle] M -4.5): 0.233% and 0.231% and 2.7%
% thrombin activity (thrombin [1]; Log [Macrocycle] M -4.8): 1.1% and 1.5% and 2.1%
% thrombin activity (thrombin [1]; Log [Macrocycle] M -5.1): 2.6% and 3.2% and -2.3%
% thrombin activity (thrombin [1]; Log [Macrocycle] M -5.4): 3.6% and 5.7% and 3.8%
% thrombin activity (thrombin [1]; Log [Macrocycle] M -5.7): 8.1% and 9.4% and 6.2%
% thrombin activity (thrombin [1]; Log [Macrocycle] M -6.0): 12.9% and 16.1% and 11.7%
% thrombin activity (thrombin [1]; Log [Macrocycle] M -6.3): 22.1% and 27.3% and 19.3%
% thrombin activity (thrombin [1]; Log [Macrocycle] M -6.6): 34.1% and 41.1% and 30.9%
% thrombin activity (thrombin [1]; Log [Macrocycle] M -6.9): 55.7% and 58.5% and 45.5%
% thrombin activity (thrombin [1]; Log [Macrocycle] M -7.2): 67.0% and 71.8% and 59.8%
% thrombin activity (thrombin [1]; Log [Macrocycle] M -7.5): 78.0% and 82.2% and 70.6%
% thrombin activity (thrombin [1]; Log [Macrocycle] M -7.8): 96.6% and 99.4% and 81.6%
% thrombin activity (thrombin [1]; Log [Macrocycle] M -8.1): 97.9% and 103.9% and 87.1%
% thrombin activity (thrombin [1]; Log [Macrocycle] M -8.4): 104.8% and 107.0% and 92.8%
% thrombin activity (thrombin [1]; Log [Macrocycle] M -8.7): 103.7% and 107.0% and 93.5%
% thrombin activity (thrombin [1]; Log [Macrocycle] M -9.0): 106.1% and 107.4% and 94.0%
% thrombin activity (thrombin [1]; Log [Macrocycle] M -9.3): 106.8% and 100.7% and 99.2%
% thrombin activity (thrombin [1]; Log [Macrocycle] M -9.6): 107.9% and 105.2% and 99.6%
IC50 (thrombin [1]; [3]): 108 nM
IC50 (thrombin [1]; [5]): 119 nM
Ki (thrombin [1]; replicate 1, read-out: Ki (nM) Replicate 1): 92 nM
IC50 (thrombin [1]; [7]): 106 nM
Ki (thrombin [1]; replicate 2, read-out: Ki (nM) Replicate 2): 82 nM
IC50 (thrombin [1]; [9]): 99 nM
Ki (thrombin [1]; replicate 3, read-out: Ki (nM) Replicate 3): 76 nM
SMILES: CC(C)C1NC(=O)CCSCSCCNC(=O)C(CNC(=O)c2ccc(Cl)s2)NC(=O)c2cccc(c2)CNC1=O (stereo not drawn) [M4]
